From ChEMBL document CHEMBL6109094, “Anti-inflammatory agents design via the fragment hybrid strategy in the discovery of compound c1 for treating ALI and UC” (Eur J Med Chem, 2025)
Active and inactive are the calls of the source. The rule behind the calls is not given here.

Tests used:
Mus musculus [1] = assay: Anti-inflammatory activity in C57BL/6 mouse model of LPS-induced ALI assessed as inhibition of IL-6 level in serum at 20 mg/kg, po measured after 6 hrs with administered on every 12 hrs followed by LPS treatment after 30 mins post-compound treatment by ELISA; assay type: functional, organism-based; settings: time 6.5 hrs
RAW264.7 [2] = assay: Anti-inflammatory activity in mouse RAW264.7 cells assessed as inhibition of LPS-induced IL-6 mRNA level preincubated for 2 hrs followed by LPS addition measured after 6 hrs by RT-qPCR analysis; assay type: functional, cell-based; settings: dose 1-4 µM, time 8.0 hrs
[3] = molecular target: T1, Interleukin-1 receptor-associated kinase 4 (Homo sapiens) (UniProt Q9NWZ3); assay: Inhibition of IRAK4 (unknown origin) at 10 uM relative to control
T1 sequence (whole entry): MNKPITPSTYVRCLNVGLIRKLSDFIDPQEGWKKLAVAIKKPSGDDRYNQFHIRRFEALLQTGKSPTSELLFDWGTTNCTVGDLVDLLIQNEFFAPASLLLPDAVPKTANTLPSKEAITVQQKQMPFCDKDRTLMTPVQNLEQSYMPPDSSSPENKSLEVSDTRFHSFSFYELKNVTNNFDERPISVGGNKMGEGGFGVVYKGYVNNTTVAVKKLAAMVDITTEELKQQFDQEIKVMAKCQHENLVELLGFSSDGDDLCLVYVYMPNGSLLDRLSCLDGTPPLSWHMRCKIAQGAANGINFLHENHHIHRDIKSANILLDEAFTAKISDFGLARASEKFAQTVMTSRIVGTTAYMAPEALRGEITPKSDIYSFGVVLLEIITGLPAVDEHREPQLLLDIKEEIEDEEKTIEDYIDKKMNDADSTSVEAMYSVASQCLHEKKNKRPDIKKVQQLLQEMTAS

[4] = Acute toxicity in C57BL/6 mouse assessed as change in body weight change at 100 to 200 mg/kg, po measured for 10 days; assay type: organism-based; settings: in vivo, 240 h, dose 100-200 mg/kg, time 10 day
[5] = Half life in Sprague-Dawley rat at 1 mg/kg, iv measured for 24 hrs; assay type: ADME, organism-based; settings: in vivo
[6] = Tmax in Sprague-Dawley rat at 1 mg/kg, iv measured for 24 hrs; assay type: ADME, organism-based; settings: in vivo
Mus musculus [7] = assay: Anti-inflammatory activity in C57BL/6 mouse model of LPS-induced ALI assessed as decrease in inflammatory cell infiltration in lung tissue at 20 mg/kg, po measured after 6 hrs with administered on every 12 hrs followed by LPS treatment after 30 mins post-compound treatment by H and E/IHC staining based analysis; assay type: functional, organism-based; settings: time 6.5 hrs
J774.A1 [8] = assay: cells; settings: Mus musculus
Description: Anti-inflammatory activity in mouse J774.A1 cells assessed as inhibition of LPS-induced TNF-alpha level preincubated for 30 mins followed by LPS addition measured after 24 hrs by ELISA

Homo sapiens = species on record: Homo sapiens; assay: Inhibition of TAK1 (unknown origin) at 10 uM relative to control
Mus musculus [9] = assay: Anti-inflammatory activity in C57BL/6 mouse model of DSS-induced ulcerative colitis assessed as decrease in hyperplasia in white pulp of spleen administered orally for 8 days; assay type: functional, organism-based; settings: dose 20-40 mg/kg, route po, time 8.0 day
Mus musculus [10] = assay: Anti-inflammatory activity in C57BL/6 mouse model of DSS-induced ulcerative colitis assessed as decrease in inflammatory cell infiltration in splenic tissue at 20 to 40 mg/kg, po administered for 8 days […]; assay type: functional, organism-based; settings: dose 20-40 mg/kg, time 8.0 day
[11] = Acute toxicity in C57BL/6 mouse assessed as change in pathological change in liver at 100 to 200 mg/kg, po measured for 10 days by H and E staining based analysis; assay type: organism-based; settings: in vivo, 240 h, dose 100-200 mg/kg, time 10 day
Mus musculus [12] = assay: Anti-inflammatory activity in C57BL/6 mouse model of LPS-induced ALI assessed as decrease in thickening of interstitial edema in lung tissue at 20 mg/kg, po measured after 6 hrs with administered on every 12 hrs followed by LPS treatment after 30 mins post-compound treatment by H and E/IHC staining based analysis; assay type: functional, organism-based; settings: time 6.5 hrs
Mus musculus [13] = assay: Anti-inflammatory activity in C57BL/6 mouse model of DSS-induced ulcerative colitis assessed as decrease in inflammatory cell infiltration in colonic tissue at 20 to 40 mg/kg, po administered for 8 days […]; assay type: functional, organism-based; settings: dose 20-40 mg/kg, time 8.0 day
Mus musculus [14] = assay: Anti-inflammatory activity in C57BL/6 mouse model of LPS-induced ALI assessed as inhibition of TNF-alpha level in BALF at 20 mg/kg, po measured after 6 hrs with administered on every 12 hrs followed by LPS treatment after 30 mins post-compound treatment by ELISA; assay type: functional, organism-based; settings: time 6.5 hrs
Mus musculus [15] = assay: Anti-inflammatory activity in C57BL/6 mouse model of DSS-induced ulcerative colitis assessed as decrease in spleen weight at 20 to 40 mg/kg, po administered for 8 days; assay type: functional, organism-based; settings: dose 20-40 mg/kg, time 8.0 day
RAW264.7 [16] = assay: cells; settings: Mus musculus
Description: Anti-inflammatory activity in mouse RAW264.7 cells assessed as inhibition of LPS-induced TNF-alpha level preincubated for 30 mins followed by LPS addition measured after 24 hrs by ELISA

Mus musculus [17] = assay: Anti-inflammatory activity in C57BL/6 mouse model of DSS-induced ulcerative colitis assessed as colon length at 100 mg/kg, po administered for 8 days (reference value: 5.1 cm); assay type: functional, organism-based; settings: time 8.0 day
[18] = Acute toxicity in C57BL/6 mouse assessed as change in pathological change in heart at 100 to 200 mg/kg, po measured for 10 days by H and E staining based analysis; assay type: organism-based; settings: in vivo, 240 h, dose 100-200 mg/kg, time 10 day
Mus musculus [19] = assay: Anti-inflammatory activity in C57BL/6 mouse model of LPS-induced ALI assessed as decrease in lung wet to dry ratio at 20 mg/kg, po measured after 6 hrs with administered on every 12 hrs followed by LPS treatment after 30 mins post-compound treatment; assay type: functional, organism-based; settings: time 6.5 hrs
[20] = Oral bioavailability in Sprague-Dawley rat at 10 mg/kg measured for 24 hrs; assay type: ADME, organism-based; settings: in vivo
Mus musculus [21] = assay: Anti-inflammatory activity in C57BL/6 mouse model of DSS-induced ulcerative colitis assessed as colon length at 40 mg/kg, po administered for 8 days (reference value: 5.1 cm); assay type: functional, organism-based; settings: time 8.0 day
[22] = AUC (0 to t) in Sprague-Dawley rat at 10 mg/kg, po measured for 24 hrs; assay type: ADME, organism-based; settings: in vivo
[23] = molecular target: Mitogen-activated protein kinase 9 (Homo sapiens) (UniProt P45984); assay: Inhibition of JNK2 (unknown origin) at 10 uM relative to control
Mitogen-activated protein kinase 9 (Homo sapiens), sequence (P45984 whole entry, looked up): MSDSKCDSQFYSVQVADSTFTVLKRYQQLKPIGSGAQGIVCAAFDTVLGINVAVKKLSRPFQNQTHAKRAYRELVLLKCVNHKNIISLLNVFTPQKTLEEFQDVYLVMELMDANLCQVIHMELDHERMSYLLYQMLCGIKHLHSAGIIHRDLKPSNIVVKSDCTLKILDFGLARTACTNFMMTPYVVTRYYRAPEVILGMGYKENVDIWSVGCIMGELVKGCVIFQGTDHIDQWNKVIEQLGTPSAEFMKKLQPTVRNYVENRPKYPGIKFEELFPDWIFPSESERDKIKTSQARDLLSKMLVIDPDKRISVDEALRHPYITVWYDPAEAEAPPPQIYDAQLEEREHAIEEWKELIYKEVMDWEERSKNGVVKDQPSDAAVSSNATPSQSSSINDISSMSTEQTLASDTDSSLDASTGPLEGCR

[24] = AUC (0 to t) in Sprague-Dawley rat at 1 mg/kg, iv measured for 24 hrs; assay type: ADME, organism-based; settings: in vivo
Mus musculus [25] = assay: Anti-inflammatory activity in C57BL/6 mouse model of DSS-induced ulcerative colitis assessed as decrease in serum IL-6 level at 20 to 40 mg/kg, po administered for 8 days by ELISA; assay type: functional, organism-based; settings: dose 20-40 mg/kg, time 8.0 day
[26] = Acute toxicity in C57BL/6 mouse assessed as change in pathological change in kidney at 100 to 200 mg/kg, po measured for 10 days by H and E staining based analysis; assay type: organism-based; settings: in vivo, 240 h, dose 100-200 mg/kg, time 10 day
[27] = Acute toxicity in C57BL/6 mouse assessed as change in physiological state at 100 to 200 mg/kg, po measured for 10 days; assay type: organism-based; settings: in vivo, 240 h, dose 100-200 mg/kg, time 10 day
Mus musculus [28] = assay: Anti-inflammatory activity in C57BL/6 mouse model of LPS-induced ALI assessed as decrease in total cell count in BALF at 20 mg/kg, po measured after 6 hrs with administered on every 12 hrs followed by LPS treatment after 30 mins post-compound treatment; assay type: functional, organism-based; settings: time 6.5 hrs
J774.A1 [29] = assay: cells; settings: Mus musculus; remark: listed apart in the source
Description: Anti-inflammatory activity in mouse J774.A1 cells assessed as inhibition of LPS-induced IL-6 level preincubated for 30 mins followed by LPS addition measured after 24 hrs by ELISA

In the case of `COc1cc2c(O[C@H]3CC[C@@H](N)CC3)ncnc2cc1OCc1cccc(Br)c1`, the inhibition (Mus musculus [1]) is reported as “Active”, the inhibition (RAW264.7 [2]) is reported as “Dose-dependent-effect” and the inhibition [3] is reported as 100%. The Activity [4] was “Non-toxic”, the half-life [5] was 106 min and the Tmax [6] was 4.8 min. For the same compound, the Activity (Mus musculus [7]) was “Active”, the IC50 (J774.A1 [8]) was 1.33 µM and the inhibition (Homo sapiens) was 4.42%. The Activity (Mus musculus [9]) was “Dose-dependent-effect”, the Activity (Mus musculus [10]) was “Active” and the Activity [11] was “Non-toxic”. For the same compound, the Activity (Mus musculus [12]) was “Active”, the Activity (Mus musculus [13]) was “Active” and the inhibition (Mus musculus [14]) was “Active”. The Activity (Mus musculus [15]) was “Active; Activity Was Comparable To 5-Asa”, the IC50 (RAW264.7 [16]) was 1.52 µM and the Activity (Mus musculus [17]) was “Active”. The Activity [18] was “Non-toxic”, the Activity (Mus musculus [19]) was “Active” and the bioavailability [20] was 5.5%. The Activity (Mus musculus [21]) was “Active”, the AUC(0-t) at 24 h [22] was 4270 ng·h/mL and the inhibition [23] was 2.49%. The AUC(0-t) at 24 h [24] was 7730 ng·h/mL, the Activity (Mus musculus [25]) was “Active; Activity Was Comparable To 5-Asa” and the Activity [26] was “Non-toxic”. The Activity [27] was “Non-toxic”, the Activity (Mus musculus [28]) was “Active” and the IC50 (J774.A1 [29]) was 1.5 µM.
